Reference: ChEMBL document CHEMBL3045643, “Synthesis, crystal structure, and anticancer properties of cyclic monocarbonyl analogs of curcumin” (Med Chem Res, 2011)
The source made the active and inactive calls. No cut-off for these calls is given here.

Legend:
[1] = tested on: ACHN; test: Cytotoxicity against Homo sapiens (human) ACHN cells by CCK8-based colorimetric analysis; assay type: functional, cell-based
[2] = tested on: Calu-1; test: Cytotoxicity against Homo sapiens (human) Calu1 cells by CCK8-based colorimetric analysis; assay type: functional, cell-based
[3] = Cytotoxicity against Homo sapiens (human) H460 cells by CCK8-based colorimetric analysis; assay type: functional, cell-based; conditions: NCI-H460
[4] = tested on: HCT-116; test: Cytotoxicity against Homo sapiens (human) HCT116 cells by CCK8-based colorimetric analysis; assay type: functional, cell-based
[5] = tested on: PANC-1; test: Cytotoxicity against Homo sapiens (human) PANC1 cells by CCK8-based colorimetric analysis; assay type: functional, cell-based
[6] = Cytotoxicity against Homo sapiens (human) […] cells at 0.01 to 30 uM by CCK8-based colorimetric analysis; assay type: cell-based; conditions: wi-38, 30 µM
[7] = tested on: HCT-116; test: Cytotoxicity against Homo sapiens (human) HCT116 cells at 0.01 to 30 uM by CCK8-based colorimetric analysis; assay type: functional, cell-based
[8] = tested on: ACHN; test: Cytotoxicity against Homo sapiens (human) ACHN cells at 0.01 to 30 uM by CCK8-based colorimetric analysis; assay type: functional, cell-based
[9] = tested on: Calu-1; test: Cytotoxicity against Homo sapiens (human) Calu1 cells at 0.01 to 30 uM by CCK8-based colorimetric analysis; assay type: functional, cell-based
[10] = tested on: NCI-H460; test: Cytotoxicity against Homo sapiens (human) H460 cells at 0.01 to 30 uM by CCK8-based colorimetric analysis; assay type: functional, cell-based
[11] = tested on: PANC-1; test: Cytotoxicity against Homo sapiens (human) PANC1 cells at 0.01 to 30 uM by CCK8-based colorimetric analysis; assay type: functional, cell-based

In the case of `CCOc1ccc(/C=C2\CN(Cc3ccccc3)C/C(=C\c3ccc(OCC)cc3)C2=O)cc1`, the IC50 [1] is reported as 6.9 µM, the IC50 [2] is reported as 8.1 µM and the IC50 [3] is reported as 5.5 µM. For the same compound, the IC50 [4] was 8.3 µM, the IC50 [5] was 7.2 µM and the Activity [6] was “Non-toxic”.

For `O=C1/C(=C/c2cccc(O)c2)CN(Cc2ccccc2)C/C1=C\c1cccc(O)c1`, the Activity [7] was “Active”, the Activity [6] was “Non-toxic” and the Activity [8] was “Active”. For the same compound, the Activity [9] was “Active”, the Activity [10] was “Active” and the Activity [11] was “Active”.

In the case of `O=C1/C(=C/c2ccccc2)CN(Cc2ccccc2)C/C1=C\c1ccccc1`, the Activity [7] is reported as “Active”, the Activity [6] is reported as “Non-toxic” and the Activity [8] is reported as “Active”. For the same compound, the Activity [9] was “Active”, the Activity [10] was “Active” and the Activity [11] was “Active”.

For `COc1ccc(/C=C2\CN(Cc3ccccc3)C/C(=C\c3ccc(OC)cc3)C2=O)cc1`, the Activity [7] was “Active”, the Activity [6] was “Non-toxic” and the Activity [8] was “Active”. For the same compound, the Activity [9] was “Active”, the Activity [10] was “Active” and the Activity [11] was “Active”.

With `COc1ccccc1/C=C1\C(=O)/C(=C\c2ccccc2OC)c2ccccc21` the Activity [7] was “Active”, the Activity [6] was “Non-toxic” and the Activity [8] was “Active”. The Activity [9] was “Active”, the Activity [10] was “Active” and the Activity [11] was “Active”.
